Measurements: patent US11400389B2, “Marsdenia cundurango creeper extracts, cosmetic compositions comprising them and cosmetic uses of same” (ISP Investments LLC, priority 2017, dated 2022)
No end group written: not given here.

Tests used:
[1] = tested on: LAMP2; assay: Expression of the LAMP2 autophagy marker in skin biopsies with or without multi-toxin (cigarette smoke) stress; format: cell-based; conditions: human skin biopsies, extract 1% in a cream, EGCG 200 μg/ml
Protocol: The objective of this study was to observe the effect of treatment by condurango on skin biopsies previously subjected to multi-toxin stress, brought about by incubating the biopsies with cigarette smoke.
The selected marker is the lysosomal membrane protein LAMP2A, which is involved in the process of autophagy, one of the main pathways of degradation of cellular waste.
Human skin biopsies in culture were placed in a sealed chamber saturated with cigarette smoke for 30 minutes. This stress was referred to as multi-toxic stress due to the cigarette smoke being composed of toxic molecules from different classes. After the stress, the biopsies were placed in culture and treated by the condurango extract obtained from example 4 and formulated to 1% (mass/mass) in a cream, as in example 5. […]
At the end of this incubation, the protein LAMP2 was detected by immunomarking on skin biopsy sections.
This technique was performed on paraffin skin sections incubated in the presence of the anti-LAMP2 antibody (rabbit polyclonal antibody, Abcam) After 1 hour of incubation followed by rinsings, the sections were incubated in the presence of secondary anti-rabbit antibody coupled with a fluorophore (Alexa Fluor® 488, Invitrogen). The sections were then examined under epi-fluorescence microscope (Zeiss Axiovert 200M microscope). The expression of LAMP2 was then observed and quantified at epidermis level.

[2] = tested on: interleukin-6 (IL-6); assay: Salting-out of interleukin-6 by skin biopsies subjected to stress by substance P (ELISA); format: cell-based, human; conditions: substance P 10^−6 M in culture medium, 48 hours, extract 1% in a cream where applied
Source text: The objective of this experiment was to study the effect of the condurango extract on skin biopsies subjected to a stress by the substance P. The substance P was the central mediator of neurogenic inflammation (inflammation mediated via the peripheral nervous system). The neuropeptide is involved in various processes, including acute or chronic inflammation, and the perception of pain or nociception. The effect of the stress, whether or not brought about in the presence of the condurango extract, was studied by measuring the salting-out of interleukin-6 (IL-6), a cytokine synthesised by skin cells and considered to be a nociceptive inflammation mediator (O'Donovan A et al. Clinical anxiety, cortisol and interleukin-6: evidence for specificity in emotion-biology relationships. Brain Behav Immun. 2010 October; 24(7):1074-7).
Skin biopsies in culture were treated with the condurango extract obtained from example 4, formulated to 1% in a cream, as in example 5, with or without addition of substance P at 10^−6 M in the culture medium.
After 48 hours of incubation, the culture medium of the biopsies was collected and the level of IL-6 was measured by ELISA.

For `O=C(O[C@@H]1Cc2c(O)cc(O)cc2O[C@@H]1c1cc(O)c(O)c(O)c1)c1cc(O)c(O)c(O)c1` [EGCG, epigallocatechin gallate], the “increase of LAMP2 after multi-toxic stress” value ([1]; cigarette smoke 30 minutes then treatment) was “+26%” and the “rise in the marking intensity of LAMP2, in the absence of stress” value ([1]; no stress, 48 hours) was “+27%”.

For “substance P: neuropeptide, central mediator of neurogenic inflammation, used as stressor (RPKPQQFFGLM; ends and bridges not checked; UniProt P20366 58-68, looked up)”, the “level of IL-6 compared to the non-stressed control” value [2] was “+68%”.
